Consider 15 molecules from publication PMC11173002, “A Humanized CB1R Yeast Biosensor Enables Facile Screening of Cannabinoid Compounds” (International Journal of Molecular Sciences, 2024).

“Also recorded” adds a separate entry of the source. Like-named read-outs stand apart in the source and are kept apart here. Some results are limits rather than exact numbers.

Assay type in all cases: cell-based
The target of assay [1] is T1, syn-pre-pro-Δ89-CB1R (Homo sapiens, UniProt P21554).
T1 construct: expressed in transfected cells; host or cells: Saccharomyces cerevisiae BY4741-derived ZsGreen reporter strain (Gpa1-Gαi3 chimera; also sterol-modified strains ST01–ST15)
As to the kind of experiment: cell-based. To be noted: for EC50 values / activity in words: PINACA agonist series.

The target of another assay is T2, CB1 Cannabinoid Receptor (Homo sapiens, UniProt P21554).
T2 construct: Since the human CB1R strain uses the full-length receptor; host or cells: Ready-to-Assay CB1 Cannabinoid Receptor Frozen Cells (commercial human cell line with promiscuous Gα15, division-arrested)
Put plainly: Mammalian cell calcium assay (Gα15, Fluo-8 fluorescence). The note with it: high concentrations (10 μM), four-point dose response. How it is done:
To validate the findings and further evaluate the performance of our yeast screening assay, we retested a subset of our library in a conventional mammalian cell assay. We acquired human cell lines depleted of native GPCRs and containing the promiscuous Gα15, wherein GPCR activation triggers intracellular calcium release, which is measured by Fluo-8 fluorescence (see Section 4). We selected eight compounds for side-by-side testing between the yeast and human host for CB1R (Figure 4a–d). To maximize the number of compounds tested per plate, we performed a limited four-point dose response on the mammalian cells (Figure 4a,b).
Mammalian cell assays were performed in Eurofins Ready-to-Assay™ CB1 Cannabinoid Receptor Frozen Cells. Cells were division-arrested, which limited the number of samples that could be measured, so a limited 4-point dose response was performed. Cells were seeded in 96-well plates and grown for 24 h. Cells were washed with Hank’s Balanced Salt Solution (HBSS) with 20 mM HEPES and 2.5 mM Probenecid at pH 7.4. […] Cells with dye were incubated at 37 °C for 1 h before fluorescent measurement on a Flexstation 3-plate reader (Molecular Devices, San Jose, CA, USA). Baseline fluorescence was measured for 10 s before 50 μL ligands were injected into 100 μL cells. Samples were measured for 180 s and recorded values were measured as ΔF/F0 (Fmax − Fmin/Fmin).

A further assay concerns the target T3, WT CB1R (Homo sapiens, UniProt P21554).
T3 construct: expressed in transfected cells; host or cells: Saccharomyces cerevisiae BY4741-derived ZsGreen reporter strain (Gpa1-Gαi3 chimera)

The target in another assay is T4, Δ89-CB1R (Homo sapiens, UniProt P21554).
T4 construct: expressed in transfected cells; host or cells: Saccharomyces cerevisiae BY4741-derived ZsGreen reporter strain (Gpa1-Gαi3 chimera)
Put plainly: Yeast ZsGreen reporter strain with N-terminally truncated CB1R.

The next assay concerns the target T5, Syn-pre-pro CB1R (Homo sapiens, UniProt P21554).
T5 construct: expressed in transfected cells; host or cells: Saccharomyces cerevisiae BY4741-derived ZsGreen reporter strain (Gpa1-Gαi3 chimera)
As to the kind of experiment: Yeast ZsGreen reporter strain with full-length syn-pre-pro CB1R.

Assay [2] deals with T1, syn-pre-pro-Δ89-CB1R. Put plainly: syn-pre-pro-Δ89-CB1R dose response in sterol-modified yeast strains ST01–ST15. The source says: Ergosterol and cholesterol share a common zymosterol precursor that can be converted to cholesterol through a four-enzyme pathway that produces seven downstream metabolites (Figure 2b). We recently replaced the native yeast sterol pathway with cholesterol biosynthesis enzymes to create a small library of yeast strains that produce varying levels of these seven metabolites in the GpaI-Gai3 chimeric ZsGreen human GPCR reporter strain [30]. The syn-pre-pro-Δ89-CB1R expression construct was transformed into fifteen strains (ST01–ST15, Figure 2c, Supplementary Table S1) selected to cover the metabolic and structural sterol space. We then performed dose response experiments with ACEA and measured the ZsGreen via fluorescent cytometry.
Yeast colonies were picked and grown overnight to saturation in pH 5.8 SD-His media in a 2.2 mL deep well plate (Axygen, Corning, NY, USA), grown in a plate-shaking incubator (30 °C, 1000 rpm, 3 mm orbital). In the morning, cultures were diluted to 1:10 or 1:25 in SD-His media buffered to pH 7.1 with 100 mM MOPSO (unless otherwise specified). Ligands were added to the culture and incubated with shaking for 8 h. Cells were then washed three times with ice-cold Tris buffer (pH 7) and diluted to 1:20 for cytometry. All cytometry was performed on a Sony SA3800 spectral analyzer. Each sample was tested for 10,000 events and read at a rate of 1000 events per second. All assays as reported here were filtered only for singlet populations.

Where [3] appears, read: FUBINACA and PINACA compounds, 8 h, n = 3 (Figure 3), read-out: EC50, dose response.
The mark [4] stands for this setting: Supplementary Table S2, read-out: EC50 (M) Yeast CB1R.
Where [5] appears, read: read-out: EC50, ACEA dose response.
The mark [6] stands for this setting: compound at 10 nM, screen, n = 1.

T1 sequence (P21554 90-472 limits assumed, stated change not applied): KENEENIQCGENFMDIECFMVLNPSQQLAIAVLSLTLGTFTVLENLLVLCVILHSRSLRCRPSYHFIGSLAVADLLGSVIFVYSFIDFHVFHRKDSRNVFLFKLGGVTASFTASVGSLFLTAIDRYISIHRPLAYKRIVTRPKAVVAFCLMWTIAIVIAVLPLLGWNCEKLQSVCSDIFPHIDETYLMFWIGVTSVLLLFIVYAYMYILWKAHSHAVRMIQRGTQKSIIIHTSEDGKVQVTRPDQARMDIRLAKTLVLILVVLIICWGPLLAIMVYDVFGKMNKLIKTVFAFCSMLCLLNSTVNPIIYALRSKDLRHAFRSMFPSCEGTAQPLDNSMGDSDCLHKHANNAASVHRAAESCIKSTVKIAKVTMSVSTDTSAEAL
T5 sequence (P21554 whole entry): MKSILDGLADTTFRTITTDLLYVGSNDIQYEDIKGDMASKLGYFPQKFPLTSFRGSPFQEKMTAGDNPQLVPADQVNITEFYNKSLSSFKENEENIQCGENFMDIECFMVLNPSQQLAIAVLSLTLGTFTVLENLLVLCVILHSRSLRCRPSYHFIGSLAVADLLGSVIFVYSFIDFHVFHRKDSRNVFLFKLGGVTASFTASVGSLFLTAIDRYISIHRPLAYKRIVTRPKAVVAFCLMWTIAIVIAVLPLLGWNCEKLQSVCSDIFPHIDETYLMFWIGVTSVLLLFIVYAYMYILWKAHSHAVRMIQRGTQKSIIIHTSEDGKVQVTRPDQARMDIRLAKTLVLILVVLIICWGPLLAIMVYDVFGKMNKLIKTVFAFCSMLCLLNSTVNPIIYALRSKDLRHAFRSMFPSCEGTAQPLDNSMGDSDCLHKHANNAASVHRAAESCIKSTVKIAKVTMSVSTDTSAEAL
T3 sequence (P21554 whole entry): as above
T4 sequence (P21554 with tags, fused parts or gaps): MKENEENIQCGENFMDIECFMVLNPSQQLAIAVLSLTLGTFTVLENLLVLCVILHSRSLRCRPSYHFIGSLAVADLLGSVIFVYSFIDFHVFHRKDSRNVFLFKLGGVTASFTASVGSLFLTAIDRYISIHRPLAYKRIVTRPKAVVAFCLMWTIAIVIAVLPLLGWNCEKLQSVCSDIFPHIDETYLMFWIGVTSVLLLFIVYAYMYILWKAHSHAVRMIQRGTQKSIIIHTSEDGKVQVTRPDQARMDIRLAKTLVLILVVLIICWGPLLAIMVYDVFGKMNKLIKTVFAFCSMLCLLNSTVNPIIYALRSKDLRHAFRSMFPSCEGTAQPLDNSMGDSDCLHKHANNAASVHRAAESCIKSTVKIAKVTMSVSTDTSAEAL
T2 sequence (P21554 whole entry): as the sequence (P21554 whole entry) above

Consider `CC[C@H](C)[C@H](NC(=O)c1nn(CCCCCF)c2ccccc12)C(N)=O` (single isomer, unassigned) [5-fluoro ADB-PINACA isomer 2], for which, on syn-pre-pro-Δ89-CB1R [1], the “EC50 values / activity in words” value was “drastic loss of activity”. Besides, the “activity in the yeast assay” value on syn-pre-pro-Δ89-CB1R [1] (side-by-side with mammalian cells, high concentrations (10 μM), listed as 5-fluoro 2-ADB-PINACA isomer 2) was “lowest activity; also recorded: partial agonism”. Besides, the “induction of calcium dye fluorescence” value at CB1 Cannabinoid Receptor is given as “failed to induce significant levels of fluorescence”.

With `CCCC(NC(=O)c1nn(Cc2ccc(F)cc2)c2ccccc12)C(N)=O` (single isomer, unassigned) [AB-FUBINACA isomer 1], the “maximal signaling in dose response” value at syn-pre-pro-Δ89-CB1R [1] is “high maximal signaling”. Further, the EC50 (usually the concentration that produces a half-maximal response) at syn-pre-pro-Δ89-CB1R [1] (setting [3]) came to 1e-11 M; on syn-pre-pro-Δ89-CB1R [1] (setting [4]) it was 4.74e-10 M.

`CCC(C)(NC(=O)c1nn(Cc2ccc(F)cc2)c2ccccc12)C(N)=O` (single isomer, unassigned) [AB-FUBINACA isomer 2]: at syn-pre-pro-Δ89-CB1R [1], the “maximal signaling in dose response” value is reported as “lower response”. For the same molecule, the EC50 at syn-pre-pro-Δ89-CB1R [1] (setting [3]) came out at 2.3e-10 M.

As to `CCC(C(N)=O)N(C)C(=O)c1nn(Cc2ccc(F)cc2)c2ccccc12` (single isomer, unassigned) [AB-FUBINACA isomer 5], the “maximal signaling in dose response” value at syn-pre-pro-Δ89-CB1R [1] was “lower response”. The EC50 on syn-pre-pro-Δ89-CB1R [1] (setting [3]) amounted to 1.59e-08 M.

`O=C(Oc1cccc2cnccc12)c1cn(CCCCCF)c2ccccc12` [5-fluoro PB-22 5-hydroxyisoquinoline isomer]: the EC50 at syn-pre-pro-Δ89-CB1R [1] (setting [4]) is 9.09e-12 M.

Take `CC(C)=CCCC(C)CCO` (stereo not drawn) [(+)-β-Citronellol]: the “activity in terpene library screen” value on syn-pre-pro-Δ89-CB1R [1] was “found to activate CB1R”.

For `CC(C)[C@H](NC(=O)c1cn(Cc2ccccc2)c2ccccc12)C(N)=O` [AB-BICA], on syn-pre-pro-Δ89-CB1R [1] (setting [4]), the EC50 is 5.66e-09 M.

`CC(C)C(NC(=O)c1nn(Cc2ccc(F)cc2)c2ccccc12)C(N)=O` (stereo not drawn) [AB-FUBINACA]: on syn-pre-pro-Δ89-CB1R [1], the maximal activity is 79–84% and the “maximal signaling in dose response” value is recorded as “high maximal signaling”. On syn-pre-pro-Δ89-CB1R [1] (EC50 (M) Yeast CB1R), this molecule returned an EC50 of 1.13e-11 M. In addition, the midpoint of the response at syn-pre-pro-Δ89-CB1R [1] (EC50, dose response), the EC50, lay at 6.6e-10 M.

In the case of `CCCCCn1nc(C(=O)NC(C(N)=O)C(C)C)c2ccccc21` (stereo not drawn) [AB-PINACA], on syn-pre-pro-Δ89-CB1R [1], the maximal activity is 79–84% and the “EC50 values / activity in words” value was “low nanomolar range”. In addition, the EC50 on syn-pre-pro-Δ89-CB1R [1] (setting [3]) amounted to 1.21e-09 M.

For `CCCCC/C=C\C/C=C\C/C=C\C/C=C\CCCC(=O)NCCCl` [ACEA, Arachidonyl-2′-chloroethylamide], the “Fold Change CB1R” value was determined as 93.6 ± 15.6 fold on syn-pre-pro-Δ89-CB1R [1], 73.2 fold on syn-pre-pro-Δ89-CB1R [2] (Strain ST01) and 34.3 fold on syn-pre-pro-Δ89-CB1R [2] (Strain ST13). For the same molecule, the “drop in sensitivity compared to the full-length syn-pre-pro construct” value on syn-pre-pro-Δ89-CB1R [1] is listed as 3.8 fold. Also, the values for the fold activation at syn-pre-pro-Δ89-CB1R [1], at Δ89-CB1R (truncated receptor) and at Syn-pre-pro CB1R (syn-pre-pro modification alone) were 28 fold, 15 fold and “approximately 7 fold”, respectively. Moreover, the EC50 at syn-pre-pro-Δ89-CB1R [1] (setting [5]) amounted to 1.5e-07 M; at WT CB1R (setting [5]), 1300 nM; at Δ89-CB1R (Δ89-CB1R in yeast, 8 h, n = 3, read-out: EC50, ACEA dose response) it was 5050 nM; on Syn-pre-pro CB1R (Syn-pre-pro CB1R in yeast, 8 h, n = 3, read-out: EC50, ACEA dose response), 40 nM; on syn-pre-pro-Δ89-CB1R [2] (Strain ST01, read-out: EC50), 73 nM; at syn-pre-pro-Δ89-CB1R [2] (Strain ST02, read-out: EC50) it was 305 nM. In addition, the EC50 came to 144 nM on syn-pre-pro-Δ89-CB1R [2] (Strain ST03, read-out: EC50); 96 nM on syn-pre-pro-Δ89-CB1R [2] (Strain ST04, read-out: EC50); 107 nM at syn-pre-pro-Δ89-CB1R [2] (Strain ST05, read-out: EC50); 74 nM on syn-pre-pro-Δ89-CB1R [2] (Strain ST06, read-out: EC50); 102 nM on syn-pre-pro-Δ89-CB1R [2] (Strain ST08, read-out: EC50); 134 nM on syn-pre-pro-Δ89-CB1R [2] (Strain ST09, read-out: EC50). The EC50 on syn-pre-pro-Δ89-CB1R [2] (Strain ST10, read-out: EC50) was 253 nM; on syn-pre-pro-Δ89-CB1R [2] (Strain ST11, read-out: EC50), 160 nM; at syn-pre-pro-Δ89-CB1R [2] (Strain ST12, read-out: EC50) it was 140 nM; on syn-pre-pro-Δ89-CB1R [2] (Strain ST13, read-out: EC50), 99 nM; on syn-pre-pro-Δ89-CB1R [2] (Strain ST14, read-out: EC50) it was 640 nM; at syn-pre-pro-Δ89-CB1R [2] (Strain ST15, read-out: EC50) it was 604 nM. The EC50 on syn-pre-pro-Δ89-CB1R [2] (cholesterol intermediate strain ST07, text value, read-out: EC50) is 65 nM; at syn-pre-pro-Δ89-CB1R [2] (mean over ST01–ST15, read-out: average EC50 value across the intermediate strains) it was 199 nM. The “fold signaling (activation)” value on WT CB1R was less than 4 fold.

As for `CCCCCn1nc(C(=O)NC(C(N)=O)C(C)(C)C)c2ccccc21` (stereo not drawn) [ADB-PINACA], the maximal activity at syn-pre-pro-Δ89-CB1R [1] is reported as 79–84%. Further, the 50% effective concentration (EC50) on syn-pre-pro-Δ89-CB1R [1] (setting [3]) was determined as 9e-11 M; on syn-pre-pro-Δ89-CB1R [1] (setting [4]) it was 8.34e-12 M. In addition, the “EC50 values / activity in words” value at syn-pre-pro-Δ89-CB1R [1] was “low nanomolar range”.

In the case of `CCCCCCC(C)(C)c1cc(O)c2c(c1)OC(C)(C)[C@H]1CC=C(CO)C[C@H]21` [HU-211], on syn-pre-pro-Δ89-CB1R [1], the “relative fluorescence of the ACEA positive control” value (from here on “relative fluorescence”) is “less than 25%”.

Regarding `Cc1c(C(=O)c2ccccc2)c(N)c(-c2ccccc2)n1Cc1ccc(Cl)cc1` [URB447], the “relative fluorescence” value on syn-pre-pro-Δ89-CB1R [1] (setting [6]) is on record as “less than 25%”.

Consider `COc1ccc(C(=O)c2c(C)n(CCN3CCOCC3)c3cc(Br)ccc23)cc1` [WIN54,461], for which the “relative fluorescence” value at syn-pre-pro-Δ89-CB1R [1] (setting [6]) is “less than 25%”.

For the molecule `C=C1CCC[C@]2(C)CC[C@@H](C(C)(C)O)C[C@@H]12` [β-Eudesmol], on syn-pre-pro-Δ89-CB1R [1], the “activity in terpene library screen” value was “found to activate CB1R”. Moreover, the “signaling in terpene dose response” value at syn-pre-pro-Δ89-CB1R [1] (dose response, n = 3) is recorded as “showed signaling at high (10 µM) concentrations”.
